From patent publication US20090131459A1, “2-Thioxanthine Derivatives Acting as MPO-Inhibitors” (ASTRAZENECA AB, priority 2006, published 2009)

Molecular target: T1, human MPO (Homo sapiens, UniProt P05164)
T1 sequence (P05164 49-745): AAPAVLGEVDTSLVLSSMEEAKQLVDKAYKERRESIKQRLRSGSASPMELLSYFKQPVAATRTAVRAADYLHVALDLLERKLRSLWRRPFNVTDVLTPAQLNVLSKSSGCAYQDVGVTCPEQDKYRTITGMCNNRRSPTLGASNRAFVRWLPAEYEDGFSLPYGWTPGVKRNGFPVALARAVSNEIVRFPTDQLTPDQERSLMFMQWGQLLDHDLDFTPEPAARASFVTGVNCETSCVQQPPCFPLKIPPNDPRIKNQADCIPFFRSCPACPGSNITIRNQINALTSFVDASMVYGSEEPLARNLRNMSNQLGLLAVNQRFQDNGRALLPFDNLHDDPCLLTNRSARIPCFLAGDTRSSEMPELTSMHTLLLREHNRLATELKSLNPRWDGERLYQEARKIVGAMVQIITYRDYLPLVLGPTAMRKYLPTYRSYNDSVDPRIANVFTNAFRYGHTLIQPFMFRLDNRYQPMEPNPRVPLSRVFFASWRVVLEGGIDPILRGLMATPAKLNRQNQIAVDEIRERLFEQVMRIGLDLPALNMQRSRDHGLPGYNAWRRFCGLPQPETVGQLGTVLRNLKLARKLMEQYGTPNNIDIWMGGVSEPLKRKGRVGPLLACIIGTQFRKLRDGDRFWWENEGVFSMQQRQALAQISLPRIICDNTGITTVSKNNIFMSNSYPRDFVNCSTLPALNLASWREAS
Assay: MPO inhibition screen (TMB oxidation, with or without added tyrosine)
Type: biochemical
Details: in the presence of tyrosine
Method: Methods for the determination of MPO inhibitory activity are disclosed in patent application WO 02/090575. The pharmacological activity of compounds according to the invention was tested in the following screen in which the compounds were either tested alone or in the presence of added tyrosine:
Assay buffer: 20 mM sodium/potassium phosphate buffer pH 6.5 containing 10 mM taurine and 100 mM NaCl.
Developing reagent: 2 mM 3,3′,5,5′-tetramethylbenzidine (TMB), 200 μM KI, 200 mM acetate buffer pH 5.4 with 20% DMF.
To 10 μl of diluted compounds in assay buffer, 40 μl of human MPO (final concentration […]), with or without 20 μM tyrosine (final concentration, if present, 8 μM), was added and the mixture was incubated for 10 minutes at ambient temperature. Then 50 μl of H2O2 (final concentration 100 μM), or assay buffer alone as a control, were added. After incubation for 10 minutes at ambient temperature, the reaction was stopped by adding 10 μl 0.2 mg/ml of catalase (final concentration 18 μg/ml). The reaction mixture was left for an additional 5 minutes before 100 μl of TMB developing reagent was added. The amount of oxidised 3,3′,5,5′-tetramethylbenzidine formed was then measured after about 5 minutes using absorbance spectroscopy at about […]. IC50 values were then determined using standard procedures.

- IC50: 500 nM
SMILES: CCOC(C)Cn1c(=S)[nH]c(=O)c2[nH]cnc21 (racemic) [Example 5, 3-(2-Ethoxy-propyl)-2-thioxanthine]
